This is an account of results in ChEMBL document CHEMBL1201862, “PubChem BioAssay data set” (2004).

Calls of active or inactive are those of the source.

For assay [1], the target named is T1, Adenosylmethionine-8-amino-7-oxononanoate aminotransferase (Mycobacterium tuberculosis, UniProt P9WQ81).
T1 sequence (P9WQ81 whole entry): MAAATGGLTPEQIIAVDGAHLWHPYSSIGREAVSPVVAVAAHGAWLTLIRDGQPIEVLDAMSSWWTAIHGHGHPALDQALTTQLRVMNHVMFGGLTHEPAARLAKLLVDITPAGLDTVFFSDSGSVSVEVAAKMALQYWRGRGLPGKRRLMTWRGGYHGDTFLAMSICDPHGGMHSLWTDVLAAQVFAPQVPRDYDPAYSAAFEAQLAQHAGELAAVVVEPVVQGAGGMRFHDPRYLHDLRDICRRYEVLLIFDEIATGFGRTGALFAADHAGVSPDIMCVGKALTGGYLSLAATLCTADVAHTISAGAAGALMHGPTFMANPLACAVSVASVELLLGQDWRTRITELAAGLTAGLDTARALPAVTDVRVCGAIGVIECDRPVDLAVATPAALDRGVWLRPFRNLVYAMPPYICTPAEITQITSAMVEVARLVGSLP
Kind of assay: Mycobacterium tuberculosis BioA enzyme inhibitor Measured in Biochemical System Using Plate Reader - 2163-02_Inhibitor_Dose_CherryPick_Activity. Format: functional, Mycobacterium tuberculosis UT205.

The subject of a further assay is HeLa. The assay can be described thus: HeLa cell cytotoxicity, dose response, cytotoxicity control, ATP luminescence, cherry-pick samples (AID 687004). To be noted: Homo sapiens. Format: functional, cell-based.
The nature of assay [2]: inhibitors of firefly luciferase expression or activity, dose response, H4 neuroglioma cells, luminescence (AID 1990). Type of assay: functional, cell-based.
Assay [3] can be described thus: Luminescence Cell-Based Dose Response HTS to Identify Inhibitors of 5'UTR Stem-Loop Driven Prion Protein mRNA Translation in H4 Neuroglioblastoma Cells. [Related pubchem assays: 1827 (Project Summary), 1813 (Primary HTS)]. Type of assay: functional.
A short description of assay [4]: inhibitors of SNCA 5'UTR-driven reporter translation, confirmation, H4 neuroglioma cells, luminescence (AID 1988). Format: functional, cell-based.
A short description of assay [5]: miR-122 activators in hepatoma reporter cells, dose response, cell-based, Huh7 psiCHECK-miR122, Renilla luciferase, cherry-picked (AID 651956).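 Note: huh7 hepatoma cells stably carrying a psiCHECK-2 miR-122 sensor plasmid; renilla luciferase signal reporting endogenous miR-122 activity after 48 h compound exposure.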 Format: functional.
The nature of assay [6]: HEK293T cytotoxicity, dose response, cytotoxicity control for miR-122 modulator project, cell-based, inhibitor set, cherry-pick, set 2 (AID 720697). Format: functional.
Assay [7] can be described thus: Counterscreen for activators of the function of SWI/SNF related, matrix associated, actin dependent regulator of chromatin, subfamily a, member 2 (SMARCA2, BRM): Luminescence-based cell-based high throughput dose response assay to identify non-selective compounds using the VP16 reporter assay. Format: functional.
Assay [8] is described as follows: cytotoxicity toward DRD oncogenic fibroblasts, dose response, cell-based, non-viral oncogenic, luminescence (AID 1934). Type of assay: functional. To be noted: Homo sapiens.
In assay [9] the test system is BJ. The assay can be described thus: cytotoxicity toward BJ-TERT-LT-ST fibroblasts, dose response, cell-based, RAS-independent, luminescence (AID 1935).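 Note: BJ fibroblasts immortalized with TERT plus LT and ST oncogenes.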 Format: functional. Conditions: Homo sapiens.
The nature of assay [10]: cells. Format: functional, cell-based.
Assay [11] is described as follows: cells. Type of assay: functional, cell-based. This is another data set of the same source.
Assay [12] concerns the target SWI/SNF-related matrix-associated actin-dependent regulator of chromatin subfamily A member 2 (Homo sapiens, UniProt P51531). Kind of assay: Luminescence-based cell-based high throughput dose response assay to identify activators of the function of SWI/SNF related, matrix associated, actin dependent regulator of chromatin, subfamily a, member 2 (SMARCA2, BRM). Format: functional.

Another assay deals with INS1. The assay can be described thus: beta cell apoptosis inhibitors, cytokine rescue, dose response, luminescence, retest (AID 449756).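 Note: cell death triggered by IL-1 beta plus TNF-alpha plus IFN-gamma mixture; protective hits raise ATP signal compared with cytokine alone wells.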 Type of assay: functional, cell-based. Conditions: Rattus norvegicus.
In assay [13] the target is Aryl hydrocarbon receptor (Homo sapiens, UniProt P35869). Kind of assay: Luminescence-based cell-based high throughput dose response assay for activators of the Aryl Hydrocarbon Receptor (AHR). [Related pubchem assays: 2796 (Primary screen (AHR activators in singlicate)), 2845 (Confirmation screen (AHR activators in triplicate)), 434939 (Counterscreen (PXR activators in triplicate)), 2804 (Summary (AHR activators))]. Format: ADME.

The target of assay [14] is DNA repair and recombination protein RAD54-like (Homo sapiens, UniProt Q92698). The assay can be described thus: inhibitors of human RAD54 branch migration, confirmation, biochemical, fluorescence, cherry-picked samples, dose series (AID 651657). Format: functional.
Assay [15] deals with BJ. Kind of assay: cells. Type of assay: functional, cell-based. Conditions: Homo sapiens.
For assay [16], the system named is BJ. Kind of assay: cytotoxicity toward BJ-TERT fibroblasts, dose response, cell-based, RAS-independent, luminescence (AID 1933). Format: functional. To be noted: Homo sapiens.
Assay [17] is described as follows: Counterscreen for […] of the human trace amine associated receptor 1 (TAAR1): Fluorescence-based cell-based high throughput dose response assay to identify nonselective Ga16 agonists. Format: functional.
Assay [18] is described as follows: Counterscreen for antagonists of the human trace amine associated receptor 1 (hTAAR1): Fluorescence-based cell-based high throughput dose response assay to identify nonselective Ga16 antagonists. Format: functional.
Another assay addresses NS3 (Hepatitis C virus, UniProt A3EZJ3). Kind of assay: HCV NS3 helicase inhibitor potency, dose response, biochemical, fluorescence polarization, ChemBridge library (AID 743264).
The nature of assay [19]: Late stage assay provider results from the probe development effort to identify inhibitors of the Plasmodium falciparum M18 Aspartyl Aminopeptidase (M18AAP): radiolabel-based cell-based dose response assay to identify compounds that inhibit P. falciparum growth in RBCs, Set 2.. Type of assay: functional.
Assay [20] has as its target ADP-ribosylation factor GTPase-activating protein 1 (Rattus norvegicus, UniProt Q62848). Kind of assay: Fluorescence polarization-based biochemical high throughput dose response screening assay to identify inhibitors of ADP-ribosylation factor GTPase activating protein 1 (ARFGAP1). Type of assay: functional.
A further assay deals with A549. Kind of assay: A549 cell toxicity, dose response, cytotoxicity control, plate reader, cherry-pick samples (AID 687028). To be noted: Homo sapiens. Format: functional, cell-based.
Assay [21] has as its target 5-hydroxytryptamine receptor 2A (Mus musculus, UniProt P35363). Format: functional, cell-based.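 Note: CHO-K1 cells with tagged receptor and beta-arrestin; agonist potency measured as compound-induced activation of the receptor.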
Assay [22] addresses FAD-linked sulfhydryl oxidase ALR (Homo sapiens, UniProt P55789). Kind of assay: inhibitors of human ALR sulfhydryl oxidase, dose response, biochemical, H2O2 detection, luminescence, cherry-pick (AID 493248).
Another assay concerns the target Mu-type opioid receptor (Homo sapiens, UniProt P35372). Type of assay: functional, cell-based.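 Note: U2OS cells with beta-arrestin recruitment to OPRM1 by beta-gal complementation.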
The target in the next assay is Melanocortin receptor 4 (Homo sapiens, UniProt P32245). Type of assay: functional, cell-based.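 Note: Cell-based assay with luminescence read-out, confirmatory dose-response testing for agonist activity of biased ligands at MC4R; human U2OS cells with tagged receptor and beta-arrestin; potency of agonists that increase receptor coupling to beta-arrestin.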
The target in assay [23] is T2, Sentrin-specific protease 1 (Homo sapiens, UniProt Q9P0U3). Kind of assay: Dose response confirmation of small molecule inhibitors of the catalytic domain of the SUMO protease, SENP1 in a FRET assay. Format: functional. To be noted: read-out: IC50_Mean.
For assay [24], the target named is T2, Sentrin-specific protease 1. Kind of assay: potency of human SENP1 inhibitors, dose response, biochemical, kinetic FRET (AID 651697). Type of assay: functional. Conditions: read-out: IC50_Mean.

T2 sequence (Q9P0U3 whole entry, the tested form may be a part): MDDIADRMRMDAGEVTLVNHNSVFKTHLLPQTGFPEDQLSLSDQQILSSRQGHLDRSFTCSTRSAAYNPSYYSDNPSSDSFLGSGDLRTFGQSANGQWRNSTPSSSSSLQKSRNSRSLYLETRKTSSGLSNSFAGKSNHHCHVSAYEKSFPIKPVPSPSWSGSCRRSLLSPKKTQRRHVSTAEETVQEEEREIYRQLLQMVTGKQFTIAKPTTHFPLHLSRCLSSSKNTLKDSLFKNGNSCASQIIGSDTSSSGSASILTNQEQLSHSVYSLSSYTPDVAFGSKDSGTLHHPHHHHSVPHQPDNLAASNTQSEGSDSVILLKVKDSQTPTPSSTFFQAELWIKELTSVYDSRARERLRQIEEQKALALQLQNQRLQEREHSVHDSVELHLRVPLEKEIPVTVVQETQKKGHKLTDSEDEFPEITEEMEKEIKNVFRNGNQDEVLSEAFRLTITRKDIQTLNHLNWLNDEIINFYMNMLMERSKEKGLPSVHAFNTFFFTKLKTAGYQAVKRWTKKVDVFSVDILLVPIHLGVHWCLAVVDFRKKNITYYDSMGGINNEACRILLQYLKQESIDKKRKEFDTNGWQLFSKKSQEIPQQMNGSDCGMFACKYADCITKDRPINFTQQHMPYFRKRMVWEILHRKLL
Sequence of Melanocortin receptor 4 (P32245 whole entry, the tested form may be a part): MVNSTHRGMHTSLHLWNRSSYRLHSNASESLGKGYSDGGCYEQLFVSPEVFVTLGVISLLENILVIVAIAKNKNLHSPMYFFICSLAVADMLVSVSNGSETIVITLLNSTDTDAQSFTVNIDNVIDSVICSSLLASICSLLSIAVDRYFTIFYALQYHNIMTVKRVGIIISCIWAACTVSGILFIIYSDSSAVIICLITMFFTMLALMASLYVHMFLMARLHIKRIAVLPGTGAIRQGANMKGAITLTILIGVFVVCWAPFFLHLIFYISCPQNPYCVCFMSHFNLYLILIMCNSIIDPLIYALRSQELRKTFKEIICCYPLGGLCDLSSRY
Sequence of Aryl hydrocarbon receptor (P35869 whole entry): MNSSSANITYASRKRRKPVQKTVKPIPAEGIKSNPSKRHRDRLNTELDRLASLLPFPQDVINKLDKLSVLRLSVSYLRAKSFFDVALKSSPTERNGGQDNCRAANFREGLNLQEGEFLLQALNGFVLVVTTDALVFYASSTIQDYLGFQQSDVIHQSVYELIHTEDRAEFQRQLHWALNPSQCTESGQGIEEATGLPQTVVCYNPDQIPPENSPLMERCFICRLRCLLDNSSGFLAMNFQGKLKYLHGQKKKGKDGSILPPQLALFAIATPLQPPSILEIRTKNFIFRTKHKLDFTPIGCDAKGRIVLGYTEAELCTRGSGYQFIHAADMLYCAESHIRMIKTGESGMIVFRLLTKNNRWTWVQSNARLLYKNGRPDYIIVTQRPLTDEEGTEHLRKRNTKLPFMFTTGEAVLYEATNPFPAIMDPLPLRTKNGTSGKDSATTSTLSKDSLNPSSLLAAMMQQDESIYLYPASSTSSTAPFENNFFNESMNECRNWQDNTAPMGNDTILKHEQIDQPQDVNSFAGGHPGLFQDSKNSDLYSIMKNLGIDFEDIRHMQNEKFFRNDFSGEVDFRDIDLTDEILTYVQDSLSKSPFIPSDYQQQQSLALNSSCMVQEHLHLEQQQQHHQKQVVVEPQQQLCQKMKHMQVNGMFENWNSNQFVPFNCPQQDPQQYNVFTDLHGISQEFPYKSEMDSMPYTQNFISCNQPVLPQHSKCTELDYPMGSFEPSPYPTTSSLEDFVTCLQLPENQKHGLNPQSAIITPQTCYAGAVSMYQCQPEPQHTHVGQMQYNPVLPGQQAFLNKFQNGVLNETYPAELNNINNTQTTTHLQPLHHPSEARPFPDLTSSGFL
Sequence of SWI/SNF-related matrix-associated actin-dependent regulator of chromatin subfamily A member 2 (P51531 whole entry): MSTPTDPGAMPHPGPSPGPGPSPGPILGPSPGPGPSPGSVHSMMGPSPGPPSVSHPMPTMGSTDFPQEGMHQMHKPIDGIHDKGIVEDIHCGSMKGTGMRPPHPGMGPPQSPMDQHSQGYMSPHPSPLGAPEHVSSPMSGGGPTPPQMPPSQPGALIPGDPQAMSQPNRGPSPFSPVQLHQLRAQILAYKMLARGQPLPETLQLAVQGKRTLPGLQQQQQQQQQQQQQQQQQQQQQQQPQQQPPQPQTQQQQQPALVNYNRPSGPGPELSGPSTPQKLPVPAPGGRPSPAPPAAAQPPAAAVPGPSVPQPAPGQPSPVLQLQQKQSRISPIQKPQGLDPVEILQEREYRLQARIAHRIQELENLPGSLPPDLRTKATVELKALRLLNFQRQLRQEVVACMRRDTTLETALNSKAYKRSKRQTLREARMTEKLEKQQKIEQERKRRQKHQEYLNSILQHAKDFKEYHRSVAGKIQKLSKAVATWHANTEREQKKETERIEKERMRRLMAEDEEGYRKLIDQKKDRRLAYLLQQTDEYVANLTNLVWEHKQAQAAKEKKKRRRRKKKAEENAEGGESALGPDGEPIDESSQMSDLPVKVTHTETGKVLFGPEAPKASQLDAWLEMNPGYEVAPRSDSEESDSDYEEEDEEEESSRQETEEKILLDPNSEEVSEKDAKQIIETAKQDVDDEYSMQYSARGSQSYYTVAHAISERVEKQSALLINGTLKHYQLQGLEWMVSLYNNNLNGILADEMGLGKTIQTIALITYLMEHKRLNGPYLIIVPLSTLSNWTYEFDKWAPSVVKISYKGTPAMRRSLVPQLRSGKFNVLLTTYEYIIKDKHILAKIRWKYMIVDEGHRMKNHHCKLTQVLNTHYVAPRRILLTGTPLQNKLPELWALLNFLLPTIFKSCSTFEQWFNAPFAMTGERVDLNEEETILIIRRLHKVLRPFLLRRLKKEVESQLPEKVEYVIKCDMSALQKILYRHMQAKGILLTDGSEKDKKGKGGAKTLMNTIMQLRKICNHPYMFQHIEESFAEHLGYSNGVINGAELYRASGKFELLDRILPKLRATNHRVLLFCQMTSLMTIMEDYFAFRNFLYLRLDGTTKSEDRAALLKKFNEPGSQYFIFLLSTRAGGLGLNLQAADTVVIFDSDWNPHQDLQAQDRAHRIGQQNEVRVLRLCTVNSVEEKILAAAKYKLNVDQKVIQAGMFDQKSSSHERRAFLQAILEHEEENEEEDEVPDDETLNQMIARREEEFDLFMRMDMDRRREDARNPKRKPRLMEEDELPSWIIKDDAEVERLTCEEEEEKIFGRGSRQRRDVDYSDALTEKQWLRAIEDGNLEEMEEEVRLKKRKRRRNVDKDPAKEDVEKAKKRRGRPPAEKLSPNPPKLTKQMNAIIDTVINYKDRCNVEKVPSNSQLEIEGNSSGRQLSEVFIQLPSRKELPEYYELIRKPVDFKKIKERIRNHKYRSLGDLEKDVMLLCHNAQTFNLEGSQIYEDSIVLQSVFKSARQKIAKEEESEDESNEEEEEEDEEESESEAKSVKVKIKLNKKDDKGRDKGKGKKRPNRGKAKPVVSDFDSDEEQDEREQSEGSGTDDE
Sequence of ADP-ribosylation factor GTPase-activating protein 1 (Q62848 whole entry): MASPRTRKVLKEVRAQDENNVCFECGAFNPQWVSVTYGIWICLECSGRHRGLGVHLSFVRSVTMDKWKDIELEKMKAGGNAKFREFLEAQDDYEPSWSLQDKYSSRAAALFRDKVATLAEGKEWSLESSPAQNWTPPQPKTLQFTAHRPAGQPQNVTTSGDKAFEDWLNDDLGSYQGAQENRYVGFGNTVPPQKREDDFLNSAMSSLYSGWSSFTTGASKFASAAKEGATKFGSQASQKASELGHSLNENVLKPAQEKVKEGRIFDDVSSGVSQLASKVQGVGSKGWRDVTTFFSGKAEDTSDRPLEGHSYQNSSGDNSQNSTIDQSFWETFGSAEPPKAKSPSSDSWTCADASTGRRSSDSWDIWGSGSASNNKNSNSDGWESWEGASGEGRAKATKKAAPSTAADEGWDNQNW
Sequence of FAD-linked sulfhydryl oxidase ALR (P55789 whole entry): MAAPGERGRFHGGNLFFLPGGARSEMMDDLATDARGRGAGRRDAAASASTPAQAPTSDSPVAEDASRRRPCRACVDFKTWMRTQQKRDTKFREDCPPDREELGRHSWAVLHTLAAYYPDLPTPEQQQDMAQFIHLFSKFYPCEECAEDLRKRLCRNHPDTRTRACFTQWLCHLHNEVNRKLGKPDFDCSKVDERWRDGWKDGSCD
Sequence of NS3 (A3EZJ3 whole entry): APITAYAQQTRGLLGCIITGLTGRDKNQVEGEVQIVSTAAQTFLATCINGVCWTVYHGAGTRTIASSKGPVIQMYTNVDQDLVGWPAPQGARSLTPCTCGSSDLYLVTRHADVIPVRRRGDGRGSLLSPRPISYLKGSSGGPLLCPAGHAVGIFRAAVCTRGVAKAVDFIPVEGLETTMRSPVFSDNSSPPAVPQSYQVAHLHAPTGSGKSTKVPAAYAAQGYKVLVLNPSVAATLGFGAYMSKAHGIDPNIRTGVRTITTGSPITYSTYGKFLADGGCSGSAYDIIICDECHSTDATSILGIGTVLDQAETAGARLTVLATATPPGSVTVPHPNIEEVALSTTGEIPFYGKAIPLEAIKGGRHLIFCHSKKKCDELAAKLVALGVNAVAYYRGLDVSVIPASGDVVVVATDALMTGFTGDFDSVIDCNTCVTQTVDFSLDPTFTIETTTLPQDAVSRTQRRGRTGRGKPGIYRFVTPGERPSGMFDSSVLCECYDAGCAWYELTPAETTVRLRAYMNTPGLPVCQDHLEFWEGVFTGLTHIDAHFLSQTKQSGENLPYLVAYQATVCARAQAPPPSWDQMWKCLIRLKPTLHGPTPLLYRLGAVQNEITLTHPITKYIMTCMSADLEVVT

For the compound `O=C(C1CCOCC1)N1CC[C@@H]2[C@H]1c1cc(Br)ccc1N[C@@H]2CO`, the AC50 in [1] was 4.59 µM (active); in the assay with HeLa, > 52 µM (inactive).

In the case of `Cc1oc(-c2ccc(Cl)cc2)nc1CN1CCCC(C(=O)NCc2ccco2)C1` (stereo not given), the EC50 in [2], in [3] and in [4] was > 120 µM (not active) each time. The AC50 in assay [5] is 6.37 µM (active); in assay [6] it was 1.3 µM (active).

As to `Nc1cc2c3c(cccc3c1)C(=O)N(CCN1CCCC1)C2=O`, the EC50 in assay [7] is > 91.2 µM (inactive); in [8], 19.5 µM (active); in the assay with BJ [9] it was > 150 µM (inconclusive); in “cells [10]” it was > 350 µM (not active); in the assay “cells [11]” it was > 350 µM (not active); in [12] it was > 10.1 µM (inactive). In addition, the half-maximal effective concentration (EC50) was 0.286 µM (active) in [13], 20.6 µM (active) with BJ [15] and 13.2 µM (active) in the assay with BJ [16]. In addition, the AC50 is 3.43 µM (active) in the assay on INS1 and 5.82 µM (active) in [14].

`CCCOC(=O)c1c(-c2ccc(OC)cc2)oc2ccc(-c3ccc(OC)nc3)cc12`: the EC50 in [17] is > 29.9 µM (inactive). Besides, the IC50 in assay [18] is > 29.9 µM (inactive).

Take `Cc1ccc(C(=O)O)cc1-n1c(C)ccc1C`: at NS3, the IC50 is 7.6 µM (inactive).

With `COc1ccc(C2CCN(c3ccnc4ccccc34)C2)cc1OC` (stereo not given), the IC50 in assay [19] is 2 µM (active).

As to `C=CCOc1ccc(/C=C/C(=O)Nc2ccc(C(=O)NC)cc2)cc1`, in assay [20], the IC50 is 52.2 µM (inactive).

In the case of `COc1ccc(S(=O)(=O)N2CCN(CC(=O)NC3CC3)CC2)cc1`, the half-maximal activity concentration (AC50) in the assay on A549 was 35.1 µM (active).

As to `COc1ccccc1C(=O)NCCN1CCN(c2ccccc2)CC1`, the EC50 is 0.662 µM (active) in assay [21] and 92.5 µM (inactive) on Mu-type opioid receptor. The half-maximal activity concentration (AC50) in assay [22] was 3.86 µM (active).

Take `CCOc1ccc(Cn2c3ccc(OC)cc3c3nc4ccccc4nc32)cc1OC`: the EC50 on Melanocortin receptor 4 is > 89.2 µM (inactive). Moreover, the figures for the IC50 in assay [23] and in assay [24] were 6.92 µM (active) and 12.8 µM (active), respectively.
